Results published in patent publication US8367365B2, “Method for determining carbohydrate and kit for determining carbohydrate” (priority 2008, dated 2013).
Where two headings read alike, the source gives them in different places.

Tested on: porcine small intestinal mucosal disaccharidase (suspension of porcine small intestinal mucosal brush border membrane)
Format: in vitro ADME
Conditions: porcine small intestine-derived disaccharidase added to the enzyme reaction system, HPLC
Description: In the method for determining a carbohydrate according to the embodiment of the present invention and the method for determining a carbohydrate according to Examples described below, a suspension of porcine small intestinal mucosal brush border membrane is used as the animal-derived low-molecular-weight carbohydrate digestive enzyme.

OC[C@H]1O[C@@](CO)(O[C@H]2O[C@H](CO)[C@@H](O)[C@H](O)[C@H]2O)[C@@H](O)[C@@H]1O [sucrose]
Digestion by porcine small intestinal mucosal disaccharidases (result in words): almost completely digested
Digestion by porcine small intestinal mucosal disaccharidases (result in words) (listed as Sucrose): completely digested
